Measurements as given in PubChem BioAssay AID1919013 (Molecular Pharmacology Branch, DTP, NCI, 2023).
pIC50: −log10 of the molar value.

Test system: LG0703-F498-PDC complex spheroid growth
Test: Anticancer human tumor LG0703-F498-PDC patient-derived lung adenocarcinoma cell line growth inhibition [AhR]
Conditions: for pIC50: curve of first compound; for viability, T/C: stronger effect = lower value
How it was run: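 Spheroids combined tumor cells with HUVEC endothelial cells and human MSCs as stroma. AhR antagonists were paired with standard or investigational drugs, each dosed in half-log steps down from near clinical Cmax, or from 10 microM where Cmax was unknown.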

[1] = second compound 0.1 µM, first compound 0.0316 µM
[2] = second compound 0.1 µM, first compound 0.1 µM
[3] = second compound 0.1 µM, first compound 0.316 µM
[4] = second compound 0.1 µM, first compound 1 µM
[5] = second compound 0.1 µM, first compound 3.16 µM
[6] = second compound 0.1 µM, first compound 10 µM
[7] = second compound 0.316 µM, first compound 0.0316 µM
[8] = second compound 0.316 µM, first compound 0.1 µM
[9] = second compound 0.316 µM, first compound 0.316 µM
[10] = second compound 0.316 µM, first compound 1 µM
[11] = second compound 0.316 µM, first compound 3.16 µM
[12] = second compound 0.316 µM, first compound 10 µM
[13] = second compound 1 µM, first compound 0.0316 µM
[14] = second compound 1 µM, first compound 0.1 µM
[15] = second compound 1 µM, first compound 0.316 µM
[16] = second compound 1 µM, first compound 1 µM
[17] = second compound 1 µM, first compound 3.16 µM
[18] = second compound 1 µM, first compound 10 µM
[19] = second compound 3.16 µM, first compound 0.0316 µM
[20] = second compound 3.16 µM, first compound 0.1 µM
[21] = second compound 3.16 µM, first compound 0.316 µM
[22] = second compound 3.16 µM, first compound 1 µM
[23] = second compound 3.16 µM, first compound 3.16 µM
[24] = second compound 3.16 µM, first compound 10 µM
[25] = second compound 10 µM, first compound 0.0316 µM
[26] = second compound 10 µM, first compound 0.1 µM
[27] = second compound 10 µM, first compound 0.316 µM
[28] = second compound 10 µM, first compound 1 µM
[29] = second compound 10 µM, first compound 3.16 µM
[30] = second compound 10 µM, first compound 10 µM
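Further: luminescence taken as a proxy for viable cell amount.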
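Wherever viability, T/C is given: percent of DMSO vehicle control where 100% means growth equal to vehicle.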

Work on `CC(C)CC(NC(=O)C(Cc1ccccc1)NC(=O)c1cnccn1)B(O)O` (stereo not given) + Cc1ccccc1N=Nc1ccc(NC(=O)c2ccnn2C)c(C)c1 yielded a pIC50 (second compound 0.1 µM) of 8.29, a pIC50 (second compound 0.316 µM) of 8.30 and a pIC50 (second compound 1 µM) of 8.28. For the same compound, the pIC50 (second compound 3.16 µM) was 8.30, the pIC50 (second compound 10 µM) was 8.29 and the viability, T/C (second compound 0.1 µM, first compound 0.000949 µM) was 101%. The viability, T/C (second compound 0.1 µM, first compound 0.003 µM) was 85.3%, the viability, T/C (second compound 0.1 µM, first compound 0.00949 µM) was 10% and the viability, T/C (second compound 0.1 µM, first compound 0.03 µM) was 0.56%. For the same compound, the viability, T/C (second compound 0.1 µM, first compound 0.0949 µM) was 0.28%, the viability, T/C (second compound 0.1 µM, first compound 0.3 µM) was 0.18% and the viability, T/C (second compound 0.316 µM, first compound 0.000949 µM) was 95.2%. It also gave a viability, T/C (second compound 0.316 µM, first compound 0.003 µM) of 80%, a viability, T/C (second compound 0.316 µM, first compound 0.00949 µM) of 12.3% and a viability, T/C (second compound 0.316 µM, first compound 0.03 µM) of 0.81%. For the same compound, the viability, T/C (second compound 0.316 µM, first compound 0.0949 µM) was 0.11%, the viability, T/C (second compound 0.316 µM, first compound 0.3 µM) was 0.12% and the viability, T/C (second compound 1 µM, first compound 0.000949 µM) was 85.1%. For the same compound, the viability, T/C (second compound 1 µM, first compound 0.003 µM) was 85.8%, the viability, T/C (second compound 1 µM, first compound 0.00949 µM) was 12.8% and the viability, T/C (second compound 1 µM, first compound 0.03 µM) was 0.76%. For the same compound, the viability, T/C (second compound 1 µM, first compound 0.0949 µM) was 0.13%, the viability, T/C (second compound 1 µM, first compound 0.3 µM) was 0.17% and the viability, T/C (second compound 3.16 µM, first compound 0.000949 µM) was 86.9%. For the same compound, the viability, T/C (second compound 3.16 µM, first compound 0.003 µM) was 78%, the viability, T/C (second compound 3.16 µM, first compound 0.00949 µM) was 14.8% and the viability, T/C (second compound 3.16 µM, first compound 0.03 µM) was 1.06%. The viability, T/C (second compound 3.16 µM, first compound 0.0949 µM) was 0.16%, the viability, T/C (second compound 3.16 µM, first compound 0.3 µM) was 0.29% and the viability, T/C (second compound 10 µM, first compound 0.000949 µM) was 82%. For the same compound, the viability, T/C (second compound 10 µM, first compound 0.003 µM) was 81.3%, the viability, T/C (second compound 10 µM, first compound 0.00949 µM) was 13.5% and the viability, T/C (second compound 10 µM, first compound 0.03 µM) was 1.28%. For the same compound, the viability, T/C (second compound 10 µM, first compound 0.0949 µM) was 0.3% and the viability, T/C (second compound 10 µM, first compound 0.3 µM) was 0.39%.

With `COc1cc(Nc2ncc3c(n2)-c2ccc(Cl)cc2C(c2c(F)cccc2OC)=NC3)ccc1C(=O)O` + Cc1ccccc1N=Nc1ccc(NC(=O)c2ccnn2C)c(C)c1 the pIC50 (second compound 0.1 µM) was < 5.00, the pIC50 (second compound 0.316 µM) was 5.27 and the pIC50 (second compound 1 µM) was 5.22. For the same compound, the pIC50 (second compound 3.16 µM) was 5.39, the pIC50 (second compound 10 µM) was 5.30 and the viability, T/C [1] was 93.2%. For the same compound, the viability, T/C [2] was 79.5%, the viability, T/C [3] was 60.5% and the viability, T/C [4] was 68.5%. It also gave a viability, T/C [5] of 67.9%, a viability, T/C [6] of 45.3% and a viability, T/C [7] of 84.4%. The viability, T/C [8] was 82.2%, the viability, T/C [9] was 70.9% and the viability, T/C [10] was 74%. For the same compound, the viability, T/C [11] was 57.7%, the viability, T/C [12] was 39.7% and the viability, T/C [13] was 86.6%. It also gave a viability, T/C [14] of 82.6%, a viability, T/C [15] of 65.4% and a viability, T/C [16] of 65.3%. For the same compound, the viability, T/C [17] was 54.2%, the viability, T/C [18] was 46% and the viability, T/C [19] was 73.9%. It also gave a viability, T/C [20] of 71.8%, a viability, T/C [21] of 61.3% and a viability, T/C [22] of 62.5%. The viability, T/C [23] was 53.8%, the viability, T/C [24] was 40.8% and the viability, T/C [25] was 70.9%. It also gave a viability, T/C [26] of 61.5%, a viability, T/C [27] of 62.5% and a viability, T/C [28] of 70.4%. The viability, T/C [29] was 55.7% and the viability, T/C [30] was 38%.

`Cn1ncnc1C1c2n[nH]c(=O)c3cc(F)cc(c23)NC1c1ccc(F)cc1` (stereo not given) + Cc1ccccc1N=Nc1ccc(NC(=O)c2ccnn2C)c(C)c1 was tested, and the pIC50 (second compound 0.1 µM) was < 7.00, the pIC50 (second compound 0.316 µM) was < 7.00 and the pIC50 (second compound 1 µM) was < 7.00. The pIC50 (second compound 3.16 µM) was < 7.00, the pIC50 (second compound 10 µM) was < 7.00 and the viability, T/C (second compound 0.1 µM, first compound 0.000316 µM) was 97.2%. For the same compound, the viability, T/C (second compound 0.1 µM, first compound 0.001 µM) was 88.6%, the viability, T/C (second compound 0.1 µM, first compound 0.00316 µM) was 103% and the viability, T/C (second compound 0.1 µM, first compound 0.01 µM) was 95.2%. For the same compound, the viability, T/C [1] was 104%, the viability, T/C [2] was 89.7% and the viability, T/C (second compound 0.316 µM, first compound 0.000316 µM) was 93.8%. It also gave a viability, T/C (second compound 0.316 µM, first compound 0.001 µM) of 98.1%, a viability, T/C (second compound 0.316 µM, first compound 0.00316 µM) of 92.6% and a viability, T/C (second compound 0.316 µM, first compound 0.01 µM) of 94.3%. For the same compound, the viability, T/C [7] was 85.5%, the viability, T/C [8] was 88.1% and the viability, T/C (second compound 1 µM, first compound 0.000316 µM) was 93.5%. It also gave a viability, T/C (second compound 1 µM, first compound 0.001 µM) of 89.4%, a viability, T/C (second compound 1 µM, first compound 0.00316 µM) of 83.3% and a viability, T/C (second compound 1 µM, first compound 0.01 µM) of 79.6%. It also gave a viability, T/C [13] of 95.9%, a viability, T/C [14] of 83.1% and a viability, T/C (second compound 3.16 µM, first compound 0.000316 µM) of 84.9%. The viability, T/C (second compound 3.16 µM, first compound 0.001 µM) was 79.9%, the viability, T/C (second compound 3.16 µM, first compound 0.00316 µM) was 88% and the viability, T/C (second compound 3.16 µM, first compound 0.01 µM) was 78.3%. For the same compound, the viability, T/C [19] was 79.7%, the viability, T/C [20] was 75.9% and the viability, T/C (second compound 10 µM, first compound 0.000316 µM) was 84.2%. The viability, T/C (second compound 10 µM, first compound 0.001 µM) was 85.2%, the viability, T/C (second compound 10 µM, first compound 0.00316 µM) was 77.9% and the viability, T/C (second compound 10 µM, first compound 0.01 µM) was 85.9%. For the same compound, the viability, T/C [25] was 79.4% and the viability, T/C [26] was 79.5%.

With `NS(=O)(=O)OCC1CC(n2ccc3c(NC4CCc5ccccc54)ncnc32)CC1O` (stereo not given) + Cc1ccccc1N=Nc1ccc(NC(=O)c2ccnn2C)c(C)c1 the pIC50 (second compound 0.1 µM) was 5.12, the pIC50 (second compound 0.316 µM) was 5.17 and the pIC50 (second compound 1 µM) was 5.51. It also gave a pIC50 (second compound 3.16 µM) of 5.97, a pIC50 (second compound 10 µM) of 5.88 and a viability, T/C [1] of 100%. For the same compound, the viability, T/C [2] was 94.1%, the viability, T/C [3] was 97.9% and the viability, T/C [4] was 90.8%. It also gave a viability, T/C [5] of 64.4%, a viability, T/C [6] of 45.2% and a viability, T/C [7] of 102%. The viability, T/C [8] was 99.8%, the viability, T/C [9] was 103% and the viability, T/C [10] was 81.7%. For the same compound, the viability, T/C [11] was 68.5%, the viability, T/C [12] was 41% and the viability, T/C [13] was 96%. The viability, T/C [14] was 102%, the viability, T/C [15] was 99% and the viability, T/C [16] was 74.4%. It also gave a viability, T/C [17] of 51.5%, a viability, T/C [18] of 38.4% and a viability, T/C [19] of 93.2%. For the same compound, the viability, T/C [20] was 99.6%, the viability, T/C [21] was 67% and the viability, T/C [22] was 55.6%. The viability, T/C [23] was 42.1%, the viability, T/C [24] was 39.6% and the viability, T/C [25] was 100%. For the same compound, the viability, T/C [26] was 82.7%, the viability, T/C [27] was 63.7% and the viability, T/C [28] was 54.5%. It also gave a viability, T/C [29] of 41.4% and a viability, T/C [30] of 32%.

In the case of `O=C(C=Cc1cccc(S(=O)(=O)Nc2ccccc2)c1)NO` + Cc1ccccc1N=Nc1ccc(NC(=O)c2ccnn2C)c(C)c1, the pIC50 (second compound 0.1 µM) was 6.08, the pIC50 (second compound 0.316 µM) was 6.09 and the pIC50 (second compound 1 µM) was 6.04. For the same compound, the pIC50 (second compound 3.16 µM) was 6.05, the pIC50 (second compound 10 µM) was 5.89 and the viability, T/C [1] was 106%. For the same compound, the viability, T/C [2] was 123%, the viability, T/C [3] was 84% and the viability, T/C [4] was 43.9%. It also gave a viability, T/C [5] of 12.4%, a viability, T/C [6] of 2.33% and a viability, T/C [7] of 110%. For the same compound, the viability, T/C [8] was 99.7%, the viability, T/C [9] was 81.6% and the viability, T/C [10] was 42.9%. For the same compound, the viability, T/C [11] was 13.5%, the viability, T/C [12] was 2.43% and the viability, T/C [13] was 122%. For the same compound, the viability, T/C [14] was 111%, the viability, T/C [15] was 83.9% and the viability, T/C [16] was 50.4%. It also gave a viability, T/C [17] of 12.6%, a viability, T/C [18] of 2.97% and a viability, T/C [19] of 97.2%. The viability, T/C [20] was 113%, the viability, T/C [21] was 86.5% and the viability, T/C [22] was 44.8%. The viability, T/C [23] was 17.8%, the viability, T/C [24] was 2.8% and the viability, T/C [25] was 103%. The viability, T/C [26] was 101%, the viability, T/C [27] was 74.7% and the viability, T/C [28] was 60.3%. The viability, T/C [29] was 25.9% and the viability, T/C [30] was 6.34%.
